The source of these data is publication PMC10672039, “Novel Ca-Chelating Peptides from Protein Hydrolysate of Antarctic Krill (Euphausia superba): Preparation, Characterization, and Calcium Absorption Efficiency in Caco-2 Cell Monolayer Model” (Marine Drugs, 2023).

Series [1] concerns Caco-2 cells. Briefly: Cytotoxicity, MTT assay. The note with it: 24 h treatment. It is filed as cell-based, Human. How it is done:
(§1) Caco-2 cells were obtained from the Shanghai Institute of Cell Biology (Shanghai, China) and cultured in EMEM with 10% fetal bovine serum, 1% antibiotic, and 1% nonessential amino acids in a humidified incubator at 37 °C with 5% CO2. The cell culture medium was replaced every two days with a new medium of equal volume. The Caco-2 cells were dispersed using trypsin-EDTA when they covered approximately 90% of the flask and were seeded on 6-well transwell culture plates with polyester membranes. The medium was replaced every other day with a new medium of equal volume. After being cultured for 21 days, the transepithelial electrical resistance (TEER) was determined to confirm the integrity of the Caco-2 cell monolayers. The Caco-2 cell monolayers were used for Ca transport experiments when the TEER exceeded 300 Ω·cm^2 [60, 66].
Cell cytotoxicity was determined using the MTT assay. […] Then, MTT solution (100 μL) was added per well and incubated for an additional 4 h. The MTT solution per well was replaced by an equal volume of DMSO solution to solubilize. Finally, the absorbance of the sample solution at 570 nm was measured.

The test system of series [2] is Caco-2 cell monolayer. Briefly: Ca transport across the Caco-2 cell monolayer. It counts as in vitro ADME, Human. The note with it: Caco-2 monolayer, mean ± SD, n = 3. The method, then:
as §1
The Ca transport in the Caco-2 cell monolayer model was analyzed using previous methods. After 21 days of incubation, the culture medium of Caco-2 cells was discarded from each well, and monolayers were immediately washed with HBSS buffer (without Ca and magnesium) two times. The Caco-2 cell monolayers were transferred to a new 6-well culture plate containing 2 mL of HBSS buffer, and 2 mL of HBSS buffer was also added to the apical side. After incubating for 30 min, the HBSS on the apical side was replaced with 2 mL of HBSS containing VERG-Ca chelate (200 μM) or Ca (150 μg/mL), and the HBSS on the basolateral side was replaced with an equal volume of fresh HBSS buffer. After incubation for 2 h, 1 mL of HBSS in the basolateral side was removed to determine Ca content at the designed time (30, 60,120, and 180 min). At the same time, fresh HBSS buffer (1 mL) was added to the basolateral side to maintain a constant volume. The content of Ca was determined by atomic absorption spectrometry using HNO3 and HClO4 as the oxidizers.
In the experiments on the effects of vitamin D3 and phytate on Ca absorption, dietary factors (vitamin D3 and phytate) were first premixed with VERG-Ca chelate or CaCl2, respectively, at a mass ratio of 1:1. […]
A general note: Passage across Caco-2 layers is used to estimate intestinal permeability.

Peptide text beside a SMILES is read from it.

Regarding `CC(C)[C@H](N)C(=O)N[C@@H](CCC(=O)O)C(=O)N[C@@H](CCCNC(=N)N)C(=O)NCC(=O)O` [ACP4, Val-Glu-Arg-Gly] (H-VERG-OH), the “effect on viability of Caco-2 cells” value in series [1] (250 μM, vs control group (p < 0.05)) is “significantly decrease the viability”; in series [1] (50–200 μM, vs control group), “no significant effect on cell viability”.

`[Ca+2].[Cl-].[Cl-]` [CaCl2]: in series [2] (180 min (stated for CaCl2; not restated for the chelate), premixed with phytate at mass ratio 1:1), the “absorption amount of Ca with phytate” value amounted to 2.02 ± 0.24 μg/mg protein. In series [2] (180 min, apical to basolateral, HBSS, VERG-Ca chelate 200 μM or Ca 150 μg/mL, atomic absorption spectrometry), the “quantity of Ca of transport / absorption amount of Ca” value was determined as 2.96 ± 0.28 μg/mg protein. Further, in series [2] (180 min, premixed with vitamin D3 at mass ratio 1:1), the “absorption amount of Ca with vitamin D3” value is 5.14 ± 0.23 μg/mg protein.
